From US12440495B2, “Combination therapy for treatment of myeloproliferative neoplasms” (Incyte Corporation, priority 2020, dated 2025)
Read-outs that look alike come from different tables or passages of the source.

Experiments:
myelofibrosis [1] = conditions: ruxolitinib monotherapy in clinical trials; cited from earlier work
[2] = test system: MPLW515L expressing bone marrow; test: MPLW515L mouse model of MPN; conditions: Compound 1 10 mg/kg QD; for spleen size / white blood cell count: ruxolitinib 60 mg/kg BID, or both, oral, 14 days
SET-2 cells = test: SET-2 xenograft model; conditions: for tumor growth inhibition: Compound 1 10 mg/kg QD, or both, oral; for Fa (tumor growth inhibition level), SET-2: table head: ruxolitinib 60 mg/kg BID, Compound 1 10 mg/kg QD, combination
HEL cells = test: JAK2 V617F expressing HEL xenograft model of erythroleukemia; format: in vivo; conditions: 14 days
Description: For efficacy studies, measurements of tumors were taken every 2 to 3 days using a digital caliper. Tumor volumes were calculated using the formula: Volume=(length×width2)/2 where width was the smaller dimension. Body weights were also monitored.
Animals were sacrificed (1) at end of study, (2) if tumor size reached 10% of total body weight, or (3) if 20% of body weight is lost.
Statistical analyses were performed using Prism Graphpad software. All comparisons were done using 2-way ANOVA with p<0.05 deemed significant.
Female SCID mice were subcutaneously inoculated with 10^7 HEL cells in matrigel. When tumors reached approximately 160 mm^3, mice (n=10 per group) were dosed orally with Compound 1 for 14 days as follows: • 1. BID at either 1 or 3 mg/kg, or vehicle control • 2. QD at 3, 10, or 30 mg/kg

myelofibrosis [3] = test: Clinical efficacy in myelofibrosis participants (NCT04279847); format: in vivo, human
Description: This is a Phase 1, open-label, 2-part study of Compound 1 as monotherapy in participants with relapsed or refractory myelofibrosis (for further details see “Safety and Tolerability Study of INCB057643 in Participants With Myelofibrosis”, ClinicalTrials.gov Identifier: NCT04279847, which is incorporated herein by reference in its entirety). INCB057643 is also referred to as Compound 1 in the present disclosure. […] Participants will receive 4 mg QD of Compound 1 on a continuous basis.
A first participant and a second participant had relapsed myelofibrosis which was treated with Compound 1 monotherapy. A third participant was being treated with single-agent ruxolitinib but having suboptimal responses.

[4] = test system: cMyc, a BRD4 target gene, in KMS12BM cells; test: Ex vivo pharmacodynamic spiked cell assay, cMyc protein in KMS12BM cells in participant plasma; format: cell-based, human; conditions: for inhibition of cMyc at trough: Cycle 1 Day 8 predose; for average cMyc inhibition at steady state: Day 8, predose to 8 hours
Description: Pharmacodynamic analysis was performed using an ex vivo assay measuring protein levels of cMyc, a BRD4 target gene, in KMS12BM cells, which were spiked into participant plasma samples collected at predose and various postdose timepoints. […] The average cMyc inhibition at steady state (Day 8, from predose to 8 hours) was 30%, 44%, and 65% for the dose of 8 mg (n=11), 12 mg (n=51), and 16 mg (n=7), respectively. […] Inhibition of cMyc was reduced to <10% at trough (Cycle 1 Day 8 predose) in the 8-mg and 12-mg cohorts and ˜30% in the 16-mg cohort.

[5] = Treatment-emergent adverse events and exposure-safety analysis, Compound 1 monotherapy; format: in vivo, human; conditions: for predicted probability of hyperglycemia incidence: from AUC-hyperglycemia relationship; for AUC: human, plasma, oral
Description: The selected clinical safety endpoints as deemed appropriate (eg, frequently occurring TEAEs (treatment-emergent adverse events), incident rate >20% for all AEs (adverse events) and clinically notable adverse events) were used to evaluate exposure-safety relationships. The safety data from a total of […] participants (including both solid tumors and hematologic malignancies) receiving monotherapy treatment of Compound 1 (n=10 at 8 mg, n=89 at 12 mg, and n=8 at 16 mg) in Parts 1 and 2 were used for analysis.
No statistically significant correlation was identified for steady-state Compound 1 AUC and any TEAEs or clinically notable AEs evaluated in this analysis, except hyperglycemia (p-value<0.05). […] Lack of correlation between Compound 1 AUCss.0-24 and TEAEs could be due to the narrow dose range (8, 12, or 16 mg) explored in this study and small sample sizes in the 8-mg and 16-mg groups of the study (the majority of participants received 12 mg).

[6] = Clinical pharmacokinetics of Compound 1 monotherapy, Phase 1/2, advanced malignancies; format: in vivo, human
Description: The clinical PK of Compound 1 in participants with advanced malignancies (solid and hematologic malignancies) were evaluated in a Phase 1/2, open-label, dose-escalation/dose-expansion, safety and tolerability study. Participants received continuous QD doses of Compound 1. As of the data cutoff date (23 Sep. 2019), 25, 101, and 8 participants who received 8 mg, 12 mg, and 16 mg, respectively, across Part 1 and Part 2 (Compound 1 treated as monotherapy) have been assessed for PK. The PK parameters of parent Compound 1 are summarized in Table 2 and Table 3 (see FIG. 5). Table 2 presents a summary of Compound 1 pharmacokinetic parameters for Compound 1 as monotherapy (part 1 and 2) at cycle 1 day 1. Table 3 presents a summary of Compound 1 pharmacokinetic parameters for Compound 1 as monotherapy (part 1 and 2) at steady-state (cycle 1 day 8).
Blood samples for the determination of plasma concentrations of Compound 1 in Parts 1 and 2 were collected at predose on Cycle 1 Day 1, Cycle 1 Day 2, and Cycle 1 Day 8, and at 0.5, 1, 2, 4, 6, and 8 hours on Cycle 1 Day 1 and Cycle 1 Day 8. The plasma samples of Compound 1 were assayed by a validated LC-MS/MS method.

[7] = ruxolitinib 30 mg/kg BID, 14 days
[8] = ruxolitinib 60 mg/kg BID, combination
[9] = monotherapy 8, 12 or 16 mg, all grades and causality

## N#CC[C@H](C1CCCC1)n1cc(-c2ncnc3[nH]ccc23)cn1 [ruxolitinib, (3R)-3-cyclopentyl-3-[4-(7H-pyrrolo[2,3-d]pyrimidin-4-yl)-1H-pyrazol-1-yl]propanenitrile]
Myelofibrosis [1]
  reduction in spleen size: about 35%
[2]
  spleen size: able to reduce spleen size
  white blood cell count: more profound effect on white blood cell count reduction than Compound 1
SET-2 cells; [7]
  tumor growth inhibition: significantly inhibited tumor growth
SET-2 cells; ruxolitinib 60 mg/kg BID, 11 days
  tumor growth inhibition: significant tumor growth inhibition
SET-2 cells
  Fa (tumor growth inhibition level), SET-2: 0.44

## CN1C(=O)C(C)(C)Oc2c(-c3cn(C)c(=O)c4[nH]ccc34)cc(S(C)(=O)=O)cc21 [Compound 1, 2,2,4-trimethyl-8-(6-methyl-7-oxo-6,7-dihydro-1H-pyrrolo[2,3-c]pyridin-4-yl)-6-(methylsulfonyl)-2H-1,4-benzoxazin-3(4H)-one]
HEL cells; 30 mg/kg QD oral
  tumor regression: one statistical tumor regression
HEL cells; all doses, oral
  tolerability (body weight loss): All doses were tolerated
HEL cells; oral, 1 or 3 mg/kg BID, 3, 10 or 30 mg/kg QD, p<0.02 each group
  tumor growth (mean tumor volume) vs vehicle: inhibited tumor growth in a dose-related manner
Myelofibrosis [3]; first participant, monotherapy 12 mg QD, nadir vs baseline
  spleen length reduction by spleen palpation: 92.5%
Myelofibrosis [3]; second participant, monotherapy 8 mg QD, on study 24 days
  clinical outcome: only disease progression
[2]
  spleen size: able to reduce spleen size
  white blood cell count: able to slow the expansion of white blood cells
[2]; [8]
  Fa (fraction affected, change vs vehicle), MPL SPL: 0.5558
  MPL SPL (sizes of the spleens): 0.3611 grams
[4]; 8 mg
  inhibition of cMyc at trough: < 10%
[4]; 8 mg, n=11
  average cMyc inhibition at steady state: 30%
[4]; 12 mg
  inhibition of cMyc at trough: < 10%
[4]; 12 mg, n=51
  average cMyc inhibition at steady state: 44%
[4]; 16 mg
  inhibition of cMyc at trough: ~30%
[4]; 16 mg, n=7
  average cMyc inhibition at steady state: 65%
[4]; Homo sapiens, KMS-12-BM, 70 participants, nonlinear regression, plasma concentration, read-out: IC50 (ex vivo, composite PK PD curve)
  IC50: 202 nM
SET-2 cells; [7]
  tumor growth inhibition: significantly inhibited tumor growth
SET-2 cells
  Fa (tumor growth inhibition level), SET-2: 0.24
[5]; 2 mg
  predicted probability of hyperglycemia incidence: 8.0%
[5]; 4 mg
  predicted probability of hyperglycemia incidence: 9.2%
[5]; FIG. 8, monotherapy 8-16 mg QD
  AUCss,0-24, fourth quartile: 3.61 µM·h
  AUCss,0-24, second quartile: 2.07 µM·h
  AUCss,0-24, third quartile: 2.62 µM·h
[5]; 12 mg, participant 1011, Grade 4 gastrointestinal hemorrhage, 12 mg QD, read-out: AUCss,0-24 of individual participant
  AUC: 3.47 µM·h
[5]; 12 mg, participant 9002, Grade 4 gastrointestinal hemorrhage, 12 mg QD, read-out: AUCss,0-24 of individual participant
  AUC: 3.61 µM·h
[5]; 12 mg, participant 12005, Grade 3 INR increased, 12 mg QD, concomitant warfarin, read-out: AUCss,0-24 of individual participant
  AUC: 6.99 µM·h
[5]; 16 mg, participant 16001, Grade 3 INR increased, 16 mg QD, concomitant warfarin, read-out: AUCss,0-24 of individual participant
  AUC: 9.77 µM·h
[5]; FIG. 8, monotherapy 8-16 mg QD, read-out: AUCss,0-24, first quartile
  AUC: 0.893 to 2.04 µM·h
[5]; monotherapy 8, 12 or 16 mg
  clinically notable AE incidence: INR increased: 8.5%
  clinically notable AE incidence: epistaxis: 9.9%
  clinically notable AE incidence: gastrointestinal hemorrhage: 1.9%
  clinically notable AE incidence: hyperglycemia: 17.4%
[5]; [9]
  TEAE incidence: anemia: 27.3%
  TEAE incidence: constipation: 20.7%
  TEAE incidence: decreased appetite: 35.5%
  TEAE incidence: diarrhea: 27.3%
  TEAE incidence: dysgeusia: 19.8%
  TEAE incidence: fatigue: 45.5%
  TEAE incidence: nausea: 47.9%
  TEAE incidence: thrombocytopenia: 28.9%
  TEAE incidence: vomiting: 28.1%
[5]; participant 9002, Grade 4 gastrointestinal hemorrhage, 12 mg QD
  AUCss,0-24 of individual participant: 2.15 µM·h
[5]; participant 16001, Grade 3 INR increased, 16 mg QD, concomitant warfarin
  AUCss,0-24 of individual participant: 9.79 µM·h
[6]; 8 mg QD, cycle 1 day 1, N = 12
  Tmax, median: 2.00 h
[6]; 8 to 16 mg QD
  dose proportionality of steady-state Cmax and AUC0-24: proportional to dose
  steady-state oral clearance, geometric mean CLss/F: 9.92 to 10.7 L/h
[6]; human, plasma, oral, 2 mg, 2 mg QD, linear PK extrapolation from 12 mg QD, read-out: estimated steady-state AUC0-24
  AUC(0-t): 0.457 µM·h
[6]; human, plasma, oral, 4 mg, 4 mg QD, linear PK extrapolation from 12 mg QD, read-out: estimated steady-state AUC0-24
  AUC(0-t): 0.913 µM·h
[6]; human, plasma, oral, 8 mg, 8 mg QD, cycle 1 day 1, N = 12, read-out: AUClast, geometric mean (CV %)
  AUC(0-t): 2.09 µM·h
[6]; human, plasma, oral, 8 mg, 8 mg QD, cycle 1 day 1, N = 12, read-out: AUClast, mean ± SD
  AUC(0-t): 2.31 ± 1.12 µM·h
[6]; human, plasma, oral, 8 mg, 8 mg QD, cycle 1 day 1, N = 12, read-out: Cmax, geometric mean (CV %)
  Cmax: 188 nM
[6]; human, plasma, oral, 8 mg, 8 mg QD, cycle 1 day 1, N = 12, read-out: Cmax, mean ± SD
  Cmax: 201 ± 83.6 nM
[6]; human, plasma, oral, 12 mg, 12 mg QD, cycle 1 day 1, N = 99, read-out: AUClast, geometric mean (CV %)
  AUC(0-t): 2.55 µM·h
[6]; human, plasma, oral, 12 mg, 12 mg QD, cycle 1 day 1, N = 99, read-out: AUClast, mean ± SD
  AUC(0-t): 2.74 ± 1.09 µM·h
[6]; human, plasma, oral, 12 mg, 12 mg QD, cycle 1 day 1, N = 99, read-out: Cmax, geometric mean (CV %)
  Cmax: 249 nM
[6]; human, plasma, oral, 12 mg, 12 mg QD, cycle 1 day 1, N = 99, read-out: Cmax, mean ± SD
  Cmax: 266 ± 94.7 nM
[6]; human, plasma, oral, 12 mg, 12 mg QD, read-out: steady-state AUC0-24, geometric mean
  AUC(0-t): 2.74 µM·h
[6]; human, plasma, oral, 12 mg, 12 mg QD, read-out: steady-state Cmax, geometric mean
  Cmax: 272 nM
[6]; human, plasma, oral, 16 mg, 16 mg QD, cycle 1 day 1, N = 7, read-out: AUClast, geometric mean (CV %)
  AUC(0-t): 3.21 µM·h
[6]; human, plasma, oral, 16 mg, 16 mg QD, cycle 1 day 1, N = 7, read-out: AUClast, mean ± SD
  AUC(0-t): 3.37 ± 1.06 µM·h
[6]; human, plasma, oral, 16 mg, 16 mg QD, cycle 1 day 1, N = 7, read-out: Cmax, geometric mean (CV %)
  Cmax: 329 nM
[6]; human, plasma, oral, 16 mg, 16 mg QD, cycle 1 day 1, N = 7, read-out: Cmax, mean ± SD
  Cmax: 343 ± 93.2 nM
[6]; human, plasma, oral, 12 mg QD, cycle 1 day 1, N = 99, read-out: Tmax, median
  Tmax: 0.5 h
[6]; human, plasma, oral, 12 mg QD, steady-state, read-out: t1/2, geometric mean (converted)
  half-life: 9.17 h
[6]; human, plasma, oral, 16 mg QD, read-out: steady-state AUC, geometric mean
  AUC: 3.61 µM·h
[6]; human, plasma, oral, 8 to 16 mg QD, read-out: volume of distribution, geometric mean Vz/F
  Vd/F: 138 to 197 L
[6]; human, plasma, oral, multiple-dose, fasted state, 8 to 16 mg QD, read-out: median Tmax
  Tmax: 1 to 2 h
[6]; human, plasma, oral, multiple-dose, not dose-dependent, read-out: steady-state geometric mean half-life (converted)
  half-life: ~10 h
[6]; once daily dosing
  accumulation of exposure (steady-state AUC0-24 vs first dose AUC0-24): < 10%
[6]; once daily dosing, based on effective half-life of 10 hours
  time to steady-state (predicted): 2 days
